Experiments:
[1] = Solubility in water / aqueous solution; conditions: as observed during preparation
[2] = single 200-mg oral dose, fasting subjects; cited from earlier work

| Structure (SMILES) | solubility in aqueous medium [1] | time of peak plasma levels after administration [2] |
| --- | --- | --- |
| CC(=O)O.CC(C)Cc1ccc(C(C)C(=O)O)cc1 (centres unmarked) [Ibuprofen ethanoate] | insoluble |  |
| CC(C)Cc1ccc(C(C)C(=O)O)cc1 (centres unmarked) [Ibuprofen] |  | about 1 hr |
